In one assay the target is Fc fragment of IgG1. Briefly: Binding affinity of Z33 and variants to IgG Fc.
A further assay deals with Dupilumab (hIgG4). Briefly: Small bioconjugation handle installation to other IgGs (Q-ToF LC-MS). The assay is classed as biochemical, human. The conditions noted are these: 20 equivalents, room temperature. The method, then: Reactions were performed on a 10 μL scale using 0.2 mL PCR tubes (FIG. 64). First, the electrophile-attached Z33 peptide reagent was dissolved in water to prepare a 2 mg/mL solution. IgG (human WN1 (prepared as previously described (ChemBioChem, 19, 2039-2044 (2018)), denosumab (Invitrogen), dupilumab (Invitrogen), or mouse IgG1 (Invitrogen, subtype controlled)), electrophile-attached Z33 peptide reagent (2 mg/mL), HEPES buffer (pH 8.5), and NaCl solution were added to achieve final concentrations of 5 μM, 100 μM, 100 mM, and 200 mM. The contents were mixed using a 5 μL pipette and incubated at room temperature in the dark for 24 hours. The resulting reaction solution was quenched with a 100 mM Tris buffer and analyzed by LC-MS (FIGS. 53A to 53D, Table 10). Sample preparation for LC-MS analysis was performed in the same manner as previously described.
Reactions were performed on a 10 μL scale using 0.2 mL PCR tubes. First, the electrophile-attached Z33 peptide reagent was dissolved in water to prepare a 2 mg/mL solution. Denosumab (Invitrogen), dupilumab (Invitrogen), or mouse IgG1 (Invitrogen, subtype controlled)), electrophile-attached Z33 peptide reagent (2 mg/mL), HEPES buffer (pH 8.5), and NaCl solution were added to achieve final concentrations of 5 μM, 100 μM, 100 mM, and 200 mM. […] The resulting reaction solution was quenched with a 100 mM Tris buffer and analyzed by LC-MS. […]

For another assay, the target named is T1, Trastuzumab (Homo sapiens, UniProt P01857, D239E/L241M).
T1 construct: purchased Syd Labs Inc; MedChemExpress LLC; Bio X Cell
Briefly: Determination of the modification sites (Trypsin/Lys-C digest, nLC-MS/MS). The assay is classed as biochemical. The following applies: Tmab, LC-MS/MS sequencing. The procedure:
The modified trastuzumab (30 μg) from entry 6 of 5.2.1 was diluted to 36 μL using Tris buffer (50 mM, pH 8.0). PNGase F (New England BioLabs, 200 units) was added to the solution and incubated at 37° C. for 4 hours. The reaction solution was then brought to room temperature, and urea solution (6M in 50 mM Tris pH 8.0, 14 μL) and DTT solution (200 mM, 1.5 μL) were added and incubated at 37° C. for 1 hour. After that, iodoacetamide (800 mM, 1 μL) was added and incubated at room temperature for 30 minutes. The resulting solution was diluted 2-fold using Tris buffer (50 mM, pH 8.0), and then Trypsin/Lys-C mix (Promega, 0.2 μg/μL in solution, 6 μL) was added and incubated at 37° C. for 18 hours. The reaction solution was then purified by pipetting with Ziptip, lyophilized, and analyzed by nLC-MS/MS (using nLC-MS/MS method B). Obtained raw data were analyzed using Thermo Scientific FreeStyle™ 1.6. […]
The modified trastuzumab (30 μg) from entry 6 of 5.2.1 was diluted to 36 μL using Tris buffer (50 mM, pH 8.0). […] The reaction solution was then purified by pipetting with Ziptip, lyophilized, and analyzed by nLC-MS/MS (using nLC-MS/MS method B). Obtained raw data were analyzed using Thermo Scientific FreeStyle™ 1.6. […]

Consider “FNMQQQRRFYEALHD PNLNHcyEQRNAKIKSI RDD [PEL-21]”, for which the Kd at Fc fragment of IgG1 was approximately 60 nM. For the same sequence, the “Light chain total conversion” value in the assay on Dupilumab (hIgG4) (HEPES pH 8.5, first column so headed) came out at 13%; with Dupilumab (hIgG4) (HEPES pH 8.5, second column so headed), 96%. For the same sequence, in the assay with Trastuzumab, the Site of modification result was “Lys-317”.

Source of the values: US20250127918A1, “SITE-SELECTIVE CONJUGATION OF A PHARMACEUTICAL AGENT TO AN ANTIBODY USING AN AFFINITY PEPTIDE” (priority 2023, published 2025).
